molecular target: T1, human type 1 glycine transporter (GlyT1) (Homo sapiens, UniProt P48067); assay: Glycine uptake inhibition experiment ([3H]glycine uptake); type: cell-based; conditions: GlyT1
T1 construct: T98G cells (glioma cells) expressing human type 1 glycine transporter (GlyT1) were used
T1 sequence (P48067 1-706): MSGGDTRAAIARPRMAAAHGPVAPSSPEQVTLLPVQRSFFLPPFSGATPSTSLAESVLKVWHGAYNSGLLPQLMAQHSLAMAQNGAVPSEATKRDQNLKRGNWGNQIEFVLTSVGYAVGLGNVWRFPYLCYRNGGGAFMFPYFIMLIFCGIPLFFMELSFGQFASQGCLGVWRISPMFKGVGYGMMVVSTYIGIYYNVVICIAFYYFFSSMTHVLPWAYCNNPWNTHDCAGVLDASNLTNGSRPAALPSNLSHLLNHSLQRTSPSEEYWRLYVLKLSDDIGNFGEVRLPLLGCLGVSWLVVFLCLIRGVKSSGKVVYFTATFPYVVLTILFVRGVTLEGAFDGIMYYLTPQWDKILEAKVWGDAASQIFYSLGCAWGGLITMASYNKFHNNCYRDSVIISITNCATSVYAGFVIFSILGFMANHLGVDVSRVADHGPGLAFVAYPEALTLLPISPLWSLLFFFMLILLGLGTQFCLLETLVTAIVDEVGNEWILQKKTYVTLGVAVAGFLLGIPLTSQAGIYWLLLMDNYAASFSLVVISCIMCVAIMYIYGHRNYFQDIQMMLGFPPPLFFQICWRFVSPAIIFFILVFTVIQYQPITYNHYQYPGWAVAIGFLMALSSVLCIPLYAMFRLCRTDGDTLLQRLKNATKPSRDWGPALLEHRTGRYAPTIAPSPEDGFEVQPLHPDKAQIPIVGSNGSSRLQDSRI
Procedure: Glycine Uptake Inhibition Experiment
A glycine uptake experiment was conducted in accordance with the method published in Neuron, 8, 927-935, 1992. In the experiment, T98G cells (glioma cells) expressing human type 1 glycine transporter (GlyT1) were used. The T98G cells were seeded in a 96-well plate at 2.0×10^4 cells/well and cultured overnight in a CO2 incubator. The test substance was dissolved in a 100% DMSO solution and then dissolved in a 10 mM HEPES buffer solution (pH 7.4) containing 150 mM sodium chloride, 1 mM calcium chloride, 5 mM potassium chloride, 1 mM magnesium chloride, 10 mM glucose and 0.2% bovine serum albumin. After removing the cell culture medium, the test substance was subjected to a 10-min pretreatment. Subsequently, the test substance and [^3H] glycine (final concentration: 250 nM) were added to the cells and reaction was performed at room temperature for 15 minutes. After the end of the reaction, the extracellular fluid was aspirated with a manifold to remove excess labeled glycine present outside the cells, and then the cells were lysed with a 0.5 M aqueous sodium hydroxide solution. The glycine content in the cells was determined by measuring the radioactivity in the cell lysate with a liquid scintillation counter. Glycine uptake in the presence of 10 μM ALX5407 was defined as non-specific uptake, and the value calculated by subtracting the amount of the non-specific uptake from the total uptake in the absence of 10 μM ALX5407 was defined as specific uptake. In addition, glycine uptake inhibitory activity (IC50 value) was calculated from an inhibition curve at the concentrations of each test substance ranging from 10^−9 to 10^−5 M. It should be noted that ALX5407 is an HCl salt of N-[(3R)-3-([1,1′-biphenyl]-4-yloxy)-3-(4-fluorophenyl)propyl]-N-methylglycine.

Compound	IC50 [nM]
3,4-dichloro-N-[(2-chloro-3-fluorophenyl)(cis-4-fluoro-1-hydroxycyclohexyl)methyl]benzamide [Compound 252]	4700
CCn1cc(-c2cccc(C(NC(=O)c3nccc(C(F)(F)F)c3Cl)C3(O)CCCC3)c2)cn1 (single isomer, unassigned) [Compound 13, 3-chloro-N-{[3-(1-ethyl-1H-pyrazol-4-yl)phenyl](1-hydroxycyclopentyl)methyl}-4-(trilfuoromethyl)pyridine-2-carboxamide]	830
CCn1cc(-c2cccc(C(NC(=O)c3nccc(C(F)(F)F)c3Cl)C3(O)CCCC3)c2)cn1 (single isomer, unassigned) [Compound 14, 3-chloro-N-{[3-(1-ethyl-1H-pyraozl-4-yl)phenyl](1-hydroxycyclopentyl)methyl}-4-(trifluoromethyl)pyridine-2-carboxamide]	13
O=C(NC(c1cccc(-c2cccnc2)c1)C1(O)CCCC1)c1nccc(C(F)(F)F)c1Cl (single isomer, unassigned) [Compound 24, 3-chloro-N-{(1-hydroxycyclopentyl)[3-(pyridin-3-yl)phenyl]methyl}-4-(trifluoromethyl)pyridine-2-carboxamide]	2000
O=C(NC(c1cccc(-c2cccnc2)c1)C1(O)CCCC1)c1nccc(C(F)(F)F)c1Cl (single isomer, unassigned) [Compound 25, 3-chloro-N-{(1-hydroxycylcopentyl)[3-(pyridin-3-yl)phenyl]methyl}-4-(trifluoromethyl)pyridine-2-carboxamide]	69
O=C(NC(c1cccc(-c2cccnc2)c1)C1(O)CCCCC1)c1nccc(C(F)(F)F)c1Cl (single isomer, unassigned) [Compound 27, 3-chloro-N-{(1-hydroxycyclohexyl)[3-(pyridin-3-yl)phenyl]methyl}-4-(trifluoromethyl)pyridine-2-carboxamide]	740
O=C(NC(c1cccc(-c2cccnc2)c1)C1(O)CCCCC1)c1nccc(C(F)(F)F)c1Cl (single isomer, unassigned) [Compound 28, 3-chloro-N-{(1-hydroxycyclohexyl)[3-(pyridin-3-yl)phenyl]methyl}-4-(trifluoromethyl)pyridine-2-carboxamide]	20
O=C(NC(c1cccc(Br)c1)C1(O)CCCCC1)c1nccc(C(F)(F)F)c1Cl (single isomer, unassigned) [Compound 42, N-[(3-bromophenyl)(1-hydroxycyclohexyl)methyl]-3-chloro-4-(trilfuoromethyl)pyridine-2-carboxamide]	38
O=C(NC(c1cccc(Br)c1)C1(O)CCCCC1)c1nccc(C(F)(F)F)c1Cl (single isomer, unassigned) [Compound 43, N-[(3-bromophenyl)(1-hydroxycyclohexyl)methyl]-3-chloro-4-(trifluoromethyl)pyridine-2-carboxamide]	1400
O=C(NC(c1cccc(F)c1)C1(O)CCCC1)c1nccc(C(F)(F)F)c1Cl (single isomer, unassigned) [Compound 52, 3-chloro-N-[(3-fluorophenyl)(1-hydroxycyclopentyl)methyl]-4-(trifluoromethyl)pyridine-2-carboxamide]	100
O=C(NC(c1cccc(F)c1)C1(O)CCCC1)c1nccc(C(F)(F)F)c1Cl (single isomer, unassigned) [Compound 53, 3-chloro-N-[(3-fluorophenyl)(1-hydroxycyclopentyl)methyl]-4-(trifluoromethyl)pyridine-2-carboxamide]	1500

Results, then the compound that gave them:

IC50 [nM]	Compound
57	O=C(NC(c1cccc(Cl)c1)C1(O)CCCC1)c1nccc(C(F)(F)F)c1Cl (single isomer, unassigned) [Compound 54, 3-chloro-N-[(3-chlorophenyl)(1-hydroxycyclopentyl)methyl]-4-(trifluoromethyl)pyridine-2-carboxamide]
8000	O=C(NC(c1cccc(Cl)c1)C1(O)CCCC1)c1nccc(C(F)(F)F)c1Cl (single isomer, unassigned) [Compound 55, 3-chloro-N-[(3-chlorophenyl)(1-hydroxycyclopentyl)methyl]-4-(trifluoromethyl)pyridine-2-carboxamide]
240	Cc1cccc(C(NC(=O)c2nccc(C(F)(F)F)c2Cl)C2(O)CCCC2)c1 (single isomer, unassigned) [Compound 56, 3-chloro-N-[(1-hydroxycyclopentyl)(3-methylphenyl)methyl]-4-(trifluoromethyl)pyridine-2-carboxamide]
150	COc1cccc(C(NC(=O)c2nccc(C(F)(F)F)c2Cl)C2(O)CCCC2)c1 (single isomer, unassigned) [Compound 57, 3-chloro-N-[(1-hydroxycyclopentyl)(3-methoxyphenyl)methyl]-4-(trifluoromethyl)pyridine-2-carboxamide]
760	O=C(NC(c1ccc(F)cc1)C1(O)CCCC1)c1nccc(C(F)(F)F)c1Cl (single isomer, unassigned) [Compound 58, 3-chloro-N-[(4-fluorophenyl)(1-hydroxycyclopentyl)methyl]-4-(trifluoromethyl)pyridine-2-carboxamide]
9500	O=C(NC(c1ccc(F)cc1)C1(O)CCCC1)c1nccc(C(F)(F)F)c1Cl (single isomer, unassigned) [Compound 59, 3-chloro-N-[(4-fluorophenyl)(1-hydroxycyclopentyl)methyl]-4-(trifluoromethyl)pyridine-2-carboxamide]
200	O=C(NC(c1ccccc1F)C1(O)CCCC1)c1nccc(C(F)(F)F)c1Cl (single isomer, unassigned) [Compound 60, 3-chloro-N-[(2-fluorophenyl)(1-hydroxycyclopentyl)methyl]-4-(trifluoromethyl)pyridine-2-carboxamide]
3000	O=C(NC(c1ccccc1F)C1(O)CCCC1)c1nccc(C(F)(F)F)c1Cl (single isomer, unassigned) [Compound 61, 3-chloro-N-[(2-fluorophenyl)(1-hydroxycyclopentyl)methyl]-4-(trifluoromethyl)pyridine-2-carboxamide]
690	O=C(NC(c1cccc(F)c1)C1(O)CCC1)c1nccc(C(F)(F)F)c1Cl (single isomer, unassigned) [Compound 66, 3-chloro-N-[(3-fluorophenyl)(1-hydroxycyclobutyl)methyl]-4-(trifluoromethyl)pyridine-2-carboxamide]
29	O=C(NC(c1cccc(F)c1)C1(O)CCCCC1)c1nccc(C(F)(F)F)c1Cl (single isomer, unassigned) [Compound 67, 3-chloro-N-[(3-fluorophenyl)(1-hydroxycyclohexyl)methyl]-4-(trifluoromethyl)pyridine-2-carboxamide]
2600	O=C(NC(c1cccc(F)c1)C1(O)CCCCC1)c1nccc(C(F)(F)F)c1Cl (single isomer, unassigned) [Compound 68, 3-chloro-N-[(3-fluorophenyl)(1-hydroxycyclohexyl)methyl]-4-(trifluoromethyl)pyridine-2-carboxamide]
7100	O=C(NC(c1cccc(F)c1)C1(O)CCCC1)c1cccc(C(F)(F)F)c1Cl (single isomer, unassigned) [Compound 72, 2-chloro-N-[(3-fluorophenyl)(1-hydroxycyclopentyl)methyl]-3-(trifluoromethyl)benzamide]
220	O=C(NC(c1cccc(F)c1)C1(O)CCCC1)c1cccc(C(F)(F)F)c1Cl (single isomer, unassigned) [Compound 73, 2-chloro-N-[(3-fluorophenyl)(1-hydroxycyclopentyl)methyl]-3-(trifluoromethyl)benzamide]
250	O=C(NC(c1cccc(F)c1)C1(O)CCC(F)(F)CC1)c1nccc(C(F)(F)F)c1Cl (single isomer, unassigned) [Compound 76, 3-chloro-N-[(4,4-difluoro-1-hydroxycyclohexyl)(3-fluorophenyl)methyl]-4-(trifluoromethyl)pyridine-2-carboxamide]
